Where a name gives a salt, the structure may show the parent alone.
Columns and labels:
HeLa cells = assay: Assay 1 cell proliferation measurement (CTG, 72 h), HeLa; type: cell-based, human; conditions: Homo sapiens, HeLa; Assay 1, 72 h, Cell Titer Glo; read-out: HeLa IC50 [nM] (Cervical cancer)
Summary of the method: (§1)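 Growth inhibition relative to a 0 h baseline plate and 0.3% DMSO control, with IC50 fitted by 4-parameter curve. Compound exposure lasted 72 h at 37 °C across a 2.5-fold, 10-step series starting generally at 100 nM final.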

SK-MEL-3 cells = assay: Assay 1 cell proliferation measurement (CTG, 72 h), SK-MEL-3; type: cell-based, human; conditions: Homo sapiens, SK-MEL3; Assay 1, 72 h, Cell Titer Glo; read-out: SK-MEL-3 IC50 [nM] (melanoma)
Summary of the method: as §1

human full length PDE3A = human full length PDE3A (Homo sapiens (Human), UniProt Q14432); assay: Assay 4 PDE3A enzyme inhibition (3H-cAMP SPA); type: biochemical; conditions: Sf9 cell extract
Summary of the method: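 In this SPA format, the 60-min room-temperature reaction used 0.025 μCi [8-3H]cAMP and diluted full-length PDE3A from Sf9 cells. Percentage activity was plotted against log compound concentration to derive IC50.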

human full length PDE3B = human full length PDE3B (Homo sapiens (Human), UniProt Q13370); assay: Assay 5 PDE3B enzyme inhibition (3H-cAMP SPA); type: biochemical; conditions: Sf9 cell extract
Summary of the method: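 Inhibition was measured by scintillation proximity using [8-3H]adenosine 3′,5′-cyclic phosphate as substrate and full-length human PDE3B from an Sf9 overexpression extract, run one hour at room temperature at pH 7.5.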

human full length PDE3B, sequence (Q13370 whole entry): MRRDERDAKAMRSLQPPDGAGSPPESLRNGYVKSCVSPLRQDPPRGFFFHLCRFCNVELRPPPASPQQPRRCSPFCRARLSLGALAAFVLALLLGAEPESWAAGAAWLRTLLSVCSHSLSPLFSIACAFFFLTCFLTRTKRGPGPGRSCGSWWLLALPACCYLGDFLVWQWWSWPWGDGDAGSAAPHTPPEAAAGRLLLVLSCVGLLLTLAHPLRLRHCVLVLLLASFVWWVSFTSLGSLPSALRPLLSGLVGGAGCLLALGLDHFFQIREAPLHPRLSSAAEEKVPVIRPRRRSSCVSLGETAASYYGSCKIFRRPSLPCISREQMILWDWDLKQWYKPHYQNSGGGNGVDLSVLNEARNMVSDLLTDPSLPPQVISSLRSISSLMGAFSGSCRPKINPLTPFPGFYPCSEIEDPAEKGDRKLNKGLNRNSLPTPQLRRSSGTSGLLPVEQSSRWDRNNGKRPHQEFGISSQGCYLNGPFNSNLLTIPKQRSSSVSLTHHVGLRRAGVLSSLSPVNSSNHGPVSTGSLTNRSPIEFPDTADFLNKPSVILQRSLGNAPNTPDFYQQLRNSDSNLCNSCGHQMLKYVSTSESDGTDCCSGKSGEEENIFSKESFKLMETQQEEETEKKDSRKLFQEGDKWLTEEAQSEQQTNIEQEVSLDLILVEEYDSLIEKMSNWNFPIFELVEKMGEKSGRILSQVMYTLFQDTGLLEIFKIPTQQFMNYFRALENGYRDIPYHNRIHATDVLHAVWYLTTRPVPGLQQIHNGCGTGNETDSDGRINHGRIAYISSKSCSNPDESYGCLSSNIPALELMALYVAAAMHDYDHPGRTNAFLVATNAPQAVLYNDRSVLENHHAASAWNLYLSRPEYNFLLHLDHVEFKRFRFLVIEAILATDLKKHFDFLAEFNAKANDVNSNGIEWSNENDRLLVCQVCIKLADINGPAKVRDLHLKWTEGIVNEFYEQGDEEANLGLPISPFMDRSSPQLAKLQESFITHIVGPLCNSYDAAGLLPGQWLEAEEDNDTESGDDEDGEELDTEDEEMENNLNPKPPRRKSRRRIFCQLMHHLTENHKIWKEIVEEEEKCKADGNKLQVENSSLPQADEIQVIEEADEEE
human full length PDE3A, sequence (Q14432 whole entry): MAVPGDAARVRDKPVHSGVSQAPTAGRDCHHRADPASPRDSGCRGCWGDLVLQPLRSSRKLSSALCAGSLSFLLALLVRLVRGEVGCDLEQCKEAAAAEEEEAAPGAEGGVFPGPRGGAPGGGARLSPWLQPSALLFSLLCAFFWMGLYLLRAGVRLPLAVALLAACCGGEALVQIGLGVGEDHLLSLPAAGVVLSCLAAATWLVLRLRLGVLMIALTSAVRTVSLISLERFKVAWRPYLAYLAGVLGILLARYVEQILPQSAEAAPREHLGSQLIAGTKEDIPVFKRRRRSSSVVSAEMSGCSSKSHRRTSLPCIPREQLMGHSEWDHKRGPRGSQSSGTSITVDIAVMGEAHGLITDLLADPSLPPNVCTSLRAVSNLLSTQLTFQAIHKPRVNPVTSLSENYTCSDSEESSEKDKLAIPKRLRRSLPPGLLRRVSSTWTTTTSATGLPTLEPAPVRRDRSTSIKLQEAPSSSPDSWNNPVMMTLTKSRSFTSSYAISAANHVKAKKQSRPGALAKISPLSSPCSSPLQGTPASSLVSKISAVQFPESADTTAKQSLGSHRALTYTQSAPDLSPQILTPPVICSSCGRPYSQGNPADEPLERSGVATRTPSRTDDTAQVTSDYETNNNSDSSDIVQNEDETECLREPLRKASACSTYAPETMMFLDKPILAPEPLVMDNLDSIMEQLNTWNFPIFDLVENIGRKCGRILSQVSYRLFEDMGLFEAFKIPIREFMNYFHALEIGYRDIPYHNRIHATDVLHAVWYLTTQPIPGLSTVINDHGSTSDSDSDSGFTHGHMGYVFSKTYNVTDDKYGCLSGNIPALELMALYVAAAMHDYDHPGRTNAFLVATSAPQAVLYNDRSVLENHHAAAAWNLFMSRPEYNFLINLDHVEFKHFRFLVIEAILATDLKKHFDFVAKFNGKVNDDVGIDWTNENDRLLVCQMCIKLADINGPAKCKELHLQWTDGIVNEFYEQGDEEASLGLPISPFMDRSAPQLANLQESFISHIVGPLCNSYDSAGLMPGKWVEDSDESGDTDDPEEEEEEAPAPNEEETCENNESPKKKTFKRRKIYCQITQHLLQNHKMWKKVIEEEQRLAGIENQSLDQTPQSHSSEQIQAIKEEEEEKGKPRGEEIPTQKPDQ

COCCNc1ccc(C2=NNC(=O)OC2)cc1C(F)(F)F [Example 222, 5-{4-[(2-Methoxyethyl)amino]-3-(trifluoromethyl)phenyl}-3,6-dihydro-2H-1,3,4-oxadiazin-2-one]
IC50 (HeLa cells): 1 nM | IC50 (SK-MEL-3 cells): 1 nM | IC50 (human full length PDE3A): 76 nM | IC50 (human full length PDE3B): 120 nM

CCN(C)c1ccc(C2=NNC(=O)OC2)cc1C(F)(F)F [Example 223, 5-{4-[Ethyl(methyl)amino]-3-(trifluoromethyl)phenyl}-3,6-dihydro-2H-1,3,4-oxadiazin-2-one]
IC50 (HeLa cells): 6 nM | IC50 (SK-MEL-3 cells): 9 nM | IC50 (human full length PDE3A): 140 nM | IC50 (human full length PDE3B): 100 nM

O=C1NN=C(c2ccc(NC[C@H]3CCCO3)c(C(F)(F)F)c2)CO1 [Example 225, 5-[4-({[(2R)-Oxolan-2-yl]methyl}amino)-3-(trifluoromethyl)phenyl]-3,6-dihydro-2H-1,3,4-oxadiazin-2-one]
IC50 (HeLa cells): 3 nM | IC50 (SK-MEL-3 cells): 5 nM | IC50 (human full length PDE3A): 45 nM | IC50 (human full length PDE3B): 220 nM

O=C1NN=C(c2ccc(N3CC[C@@H](O)C3)c(C(F)(F)F)c2)CO1 [Example 257, 5-{4-[(3R)-3-Hydroxypyrrolidin-1-yl]-3-(trifluoromethyl)phenyl}-3,6-dihydro-2H-1,3,4-oxadiazin-2-one]
IC50 (HeLa cells): 6 nM | IC50 (SK-MEL-3 cells): 9 nM | IC50 (human full length PDE3A): 75 nM | IC50 (human full length PDE3B): 120 nM

COC(C)(C)CNc1ccc(C2=NNC(=O)OC2)cc1C(F)(F)F [Example 258, 5-{4-[(2-Methoxy-2-methylpropyl)amino]-3-(trifluoromethyl)phenyl}-3,6-dihydro-2H-1,3,4-oxadiazin-2-one]
IC50 (HeLa cells): 3 nM | IC50 (SK-MEL-3 cells): 6 nM | IC50 (human full length PDE3A): 41 nM | IC50 (human full length PDE3B): 130 nM

O=C1NN=C(c2ccc(NC[C@@H]3CCCO3)c(C(F)(F)F)c2)CO1 [Example 259, 5-[4-({[(2S)-Oxolan-2-yl]methyl}amino)-3-(trifluoromethyl)phenyl]-3,6-dihydro-2H-1,3,4-oxadiazin-2-one]
IC50 (HeLa cells): 1 nM | IC50 (SK-MEL-3 cells): 3 nM | IC50 (human full length PDE3A): 34 nM | IC50 (human full length PDE3B): 110 nM

O=C1NN=C(c2ccc(N[C@H]3CCC[C@H]3O)c(C(F)(F)F)c2)CO1 [Example 261, 5-[4-{[(1S,2R)-2-Hydroxycyclopentyl]amino}-3-(trifluoromethyl)phenyl]-3,6-dihydro-2H-1,3,4-oxadiazin-2-one]
IC50 (HeLa cells): 38 nM | IC50 (SK-MEL-3 cells): > 100 nM | IC50 (human full length PDE3A): 550 nM | IC50 (human full length PDE3B): 600 nM

O=C1NN=C(c2ccc(NC3COC3)c(C(F)(F)F)c2)CO1 [Example 262, 5-{4-[(Oxetan-3-yl)amino]-3-(trifluoromethyl)phenyl}-3,6-dihydro-2H-1,3,4-oxadiazin-2-one]
IC50 (HeLa cells): 2 nM | IC50 (SK-MEL-3 cells): 5 nM | IC50 (human full length PDE3A): 18 nM | IC50 (human full length PDE3B): 20 nM

CC(C)n1cc(-c2ccc(C3=NNC(=O)OC3)cc2C(F)F)cn1 [Example 263, 5-{3-(Difluoromethyl)-4-[1-(propan-2-yl)-1H-pyrazol-4-yl]phenyl}-3,6-dihydro-2H-1,3,4-oxadiazin-2-one]
IC50 (HeLa cells): 9 nM | IC50 (SK-MEL-3 cells): 32 nM | IC50 (human full length PDE3A): 50 nM | IC50 (human full length PDE3B): 46 nM

O=C1NN=C(c2cc(F)c(N3CCOCC3)c(C(F)(F)F)c2)CO1 [Example 264, 5-[3-Fluoro-4-(morpholin-4-yl)-5-(trifluoromethyl)phenyl]-3,6-dihydro-2H-1,3,4-oxadiazin-2-one]
IC50 (HeLa cells): 2 nM | IC50 (SK-MEL-3 cells): 2 nM | IC50 (human full length PDE3A): 75 nM | IC50 (human full length PDE3B): 112 nM

O=C1NN=C(c2ccc([C@H]3CC[C@H](O)CC3)c(C(F)(F)F)c2)CO1 [Example 272, (trans)-5-{4-[4-hydroxycyclohexyl]-3-(trifluoromethyl)phenyl}-3,6-dihydro-2H-1,3,4-oxadiazin-2-one]
IC50 (HeLa cells): 1 nM | IC50 (SK-MEL-3 cells): 1 nM | IC50 (human full length PDE3A): 19 nM | IC50 (human full length PDE3B): 10 nM

O=C1NN=C(c2ccc([C@H]3CC[C@@H](O)CC3)c(C(F)(F)F)c2)CO1 [Example 273, (cis)-5-{4-[4-Hydroxycyclohexyl]-3-(trifluoromethyl)phenyl}-3,6-dihydro-2H-1,3,4-oxadiazin-2-one]
IC50 (HeLa cells): 1 nM | IC50 (SK-MEL-3 cells): 1 nM | IC50 (human full length PDE3A): 44 nM | IC50 (human full length PDE3B): 53 nM

NCCNc1ccc(C2=NNC(=O)OC2)cc1C(F)(F)F [Example 274, 5-{4-[(2-Aminoethyl)amino]-3-(trifluoromethyl)phenyl}-3,6-dihydro-2H-1,3,4-oxadiazin-2-one-salt with hydrochloric acid]
IC50 (HeLa cells): 19 nM | IC50 (SK-MEL-3 cells): 31 nM | IC50 (human full length PDE3A): 300 nM | IC50 (human full length PDE3B): 400 nM

CC(C)(O)c1ccc(C2=NNC(=O)OC2)cc1C(F)(F)F [Example 278, 5-[4-(2-Hydroxypropan-2-yl)-3-(trifluoromethyl)phenyl]-3,6-dihydro-2H-1,3,4-oxadiazin-2-one]
IC50 (HeLa cells): 58 nM | IC50 (SK-MEL-3 cells): 80 nM | IC50 (human full length PDE3A): > 1000 nM | IC50 (human full length PDE3B): > 1000 nM

CC(C)(O)CCNc1ccc(C2=NNC(=O)OC2)cc1C(F)(F)F [Example 319, 5-{4-[(3-hydroxy-3-methylbutyl)amino]-3-(trifluoromethyl)phenyl}-3,6-dihydro-2H-1,3,4-oxadiazin-2-one]
IC50 (HeLa cells): 61 nM | IC50 (SK-MEL-3 cells): > 100 nM | IC50 (human full length PDE3A): 70 nM | IC50 (human full length PDE3B): 180 nM

CC(C)(N)CNc1ccc(C2=NNC(=O)OC2)cc1C(F)(F)F [Example 321, 5-{4-[(2-amino-2-methylpropyl)amino]-3-(trifluoromethyl)phenyl}-3,6-dihydro-2H-1,3,4-oxadiazin-2-one]
IC50 (HeLa cells): > 100 nM | IC50 (SK-MEL-3 cells): 54 nM | IC50 (human full length PDE3A): 290 nM | IC50 (human full length PDE3B): 500 nM

CN(C)CCNc1ccc(C2=NNC(=O)OC2)cc1C(F)(F)F [Example 323, 5-[4-{[2-(dimethylamino)ethyl]amino}-3-(trifluoromethyl)phenyl]-3,6-dihydro-2H-1,3,4-oxadiazin-2-one]
IC50 (HeLa cells): > 84 nM | IC50 (SK-MEL-3 cells): > 100 nM | IC50 (human full length PDE3A): > 280 nM | IC50 (human full length PDE3B): > 910 nM

CN(C)CCN(C)c1ccc(C2=NNC(=O)OC2)cc1C(F)(F)F [Example 324, 5-[4-{[2-(dimethylamino)ethyl](methyl)amino}-3-(trifluoromethyl)phenyl]-3,6-dihydro-2H-1,3,4-oxadiazin-2-one]
IC50 (HeLa cells): > 100 nM | IC50 (SK-MEL-3 cells): > 100 nM | IC50 (human full length PDE3A): > 1000 nM | IC50 (human full length PDE3B): > 1000 nM

Cc1nc2cc(-c3ccc(C4=NNC(=O)OC4)cc3C(F)(F)F)ccc2s1 [Example 325, 5-[4-(2-methyl-1,3-benzothiazol-5-yl)-3-(trifluoromethyl)phenyl]-3,6-dihydro-2H-1,3,4-oxadiazin-2-one]
IC50 (HeLa cells): > 100 nM | IC50 (SK-MEL-3 cells): > 100 nM | IC50 (human full length PDE3A): 56 nM | IC50 (human full length PDE3B): 150 nM

Cc1nc2cc(-c3ccc(C4=NNC(=O)OC4)cc3C(F)(F)F)ccc2[nH]1 [Example 326, 5-[4-(2-methyl-1H-benzimidazol-5-yl)-3-(trifluoromethyl)phenyl]-3,6-dihydro-2H-1,3,4-oxadiazin-2-one]
IC50 (HeLa cells): > 100 nM | IC50 (SK-MEL-3 cells): > 100 nM | IC50 (human full length PDE3A): 17 nM | IC50 (human full length PDE3B): 30 nM

Cc1n[nH]c2cc(-c3ccc(C4=NNC(=O)OC4)cc3C(F)(F)F)ccc12 [Example 327, 5-[4-(3-methyl-1H-indazol-6-yl)-3-(trifluoromethyl)phenyl]-3,6-dihydro-2H-1,3,4-oxadiazin-2-one]
IC50 (HeLa cells): > 100 nM | IC50 (SK-MEL-3 cells): > 100 nM | IC50 (human full length PDE3A): 11 nM | IC50 (human full length PDE3B): 16 nM
